Data from US20180008592A1, “TREATMENT OF UREMIC PRURITUS” (TREVI THERAPEUTICS, INC., priority 2016, published 2018).

How the values were obtained:
Assay type in all cases: in vivo, human
[1] = tested on: renally impaired patients on hemodialysis with moderate or severe uremic pruritus; test: Same trial: Skindex-10 (itch-related quality of life); details: for Skindex-10 Disease Domain (bothersomeness of itching) [0-18], change from Baseline to the Evaluation Period, mean (SD) / Skindex-10 Mood/emotional distress domain (0-24), change from Baseline to the Evaluation Period, mean (SD) / Skindex-10 Social Functioning Domain [0-18], change from Baseline to the Evaluation Period, mean (SD) / Skindex-10 Total Score [0 (best) to 60 (worst)], change from Baseline to the Evaluation Period, mean (SD): 60 mg BID; for Skindex-10 Mood/emotional distress domain (0-24), change from Baseline to the Evaluation Period, mean / Skindex-10 Social Functioning Domain [0-18], change from Baseline to the Evaluation Period, mean / Skindex-10 Total Score [0 (best) to 60 (worst)], change from Baseline to the Evaluation Period, mean / Skindex-10 Disease Domain (bothersomeness of itching) [0-18], change from Baseline to the Evaluation Period, mean: 120 mg BID
From the text: FIG. 8 provides a numerical scale (range, 0-6; anchors at 0 “never bothered” and 6 “always bothered”) (top) used for answering 10 questions used in the assessment of itching-related quality of life (bottom) (Skindex-10).
(§1) The primary endpoint was the change from Baseline to the Evaluation Period (Study weeks 7 and 8) in the modified intent-to-treat population. Quality of life-related secondary endpoints included change from Day 1 to the Evaluation Period in itching-related quality of life (using the Skindex-10 (FIG. 8)) and itching-related sleep disruption (using the Itch Medical Outcomes Study [Itch MOS] (FIG. 9), SLP-9). The Hospital Anxiety and Depression Score (HADS) used as a general measure of anxiety and depression. All patient-reported outcomes measures were selected based on their prior validation in uremic pruritus patients specifically or in the dialysis population more generally.
(§2) The primary and quality of life secondary endpoint analyses used a mixed model repeated measures ANCOVA with the main effects of treatment and site and baseline worst itch NRS score as the covariate. The model included time (i.e. Visit) as a factor variable and treatment*time (with placebo as the reference category) with an unstructured covariance structure for repeated measures. Data from all post-baseline visits were used to fit the model. For the primary endpoint, the baseline value was defined as the mean of worst itch daytime and nighttime NRS scores used for satisfying the protocol inclusion criterion #5 (mean worst itching NRS≧4.5 based on a total of 3 daytime and 3 nighttime measurements from 3 dialysis visits). For the secondary endpoints, the baseline value was based on a measurement taken on Study Day 1, prior to randomization. A pre-specified step-down procedure was used. The first comparison was of nalbuphine 120 mg BID dose vs. placebo. If the first comparison was significant at the p<0.05 level, then the comparison between the nalbuphine 60 mg BID dose vs. placebo would be conducted. Patients with a 15% or greater response in worst itch NRS were analyzed using a Cochran-Mantel-Haenszel (CMH) test. Analysis of the Itch MOS utilized the SLP-9 scoring algorithm.
(§3) In the first 2 weeks of treatment, patients were blindly force-titrated to their assigned target dose, with the patients in the active arms reaching a dose of 60 mg BID (NAL 60) after the first week and, for those in the high dose group, to 120 mg BID (NAL 120) after the second week. Study drug was administered in blister cards containing the labeled morning and evening doses for each day of the week. Subsequently, patients continued stable doses of the study drug for an additional 6 weeks and were then washed off study drug and followed for another 2 weeks for itching intensity and safety. No down-titration was permitted during the study, although patients who missed 6 or more consecutive doses during the Stable Dose Period (Weeks 3-8) could, with the Medical Monitor's approval, re-start treatment with blinded re-titration of just the morning or evening dose for 3 days before returning to the original dose. Patients were allowed to remain on their background antipruritic medications such as antihistamines and the use of these medications and indication for treatment was collected.

[2] = tested on: renally impaired patients on hemodialysis with moderate or severe uremic pruritus; test: Same trial: Itch MOS (itch-related sleep disruption); details: for patients with sleep latency (time to fall asleep) >30 minutes, Itch MOS: last treatment week (Week 8)
From the text: FIG. 9 provides 12 questions and a numerical scale (range, 1-6; anchors at 1 “All of the time”; 2 “Most of the time”; 3 “A good bit of the time”; 4 “Some of the time”; 5 “A little of the time”; and 6 “None of the time”) used in assessing itching-related sleep disruption (Itch Medical Outcomes Study (MOS) Questions).
as §1, §2, §3

[3] = tested on: renally impaired patients on hemodialysis with moderate or severe uremic pruritus; test: Same trial: Hospital Anxiety and Depression Scale (HADS)
From the text: as §1, §2
In the first 2 weeks of treatment, patients were blindly force-titrated to their assigned target dose, with the patients in the active arms reaching a dose of 60 mg BID (NAL 60) after the first week and, for those in the high dose group, to 120 mg BID (NAL 120) after the second week. Study drug was administered in blister cards containing the labeled morning and evening doses for each day of the week. Subsequently, patients continued stable doses of the study drug for an additional 6 weeks and were then washed off study drug and followed for another 2 weeks for itching intensity and safety. […]

[4] = tested on: renally impaired patients on hemodialysis with moderate or severe uremic pruritus; test: Same trial: safety and tolerability (adverse events, discontinuation)
From the text: The term “adverse event” (AE) as used herein is defined as any untoward medical occurrence in a clinical investigation patient reported on or after the first screening date. […] An AE can therefore be any unfavorable and unintended sign (including an abnormal laboratory finding), symptom whether or not related to the medicinal (investigational) product, or disease temporally associated with the use of a medicinal (investigational) product. Typical adverse events include nausea, vomiting, somnolence, dizziness and hallucination. In accordance with the present invention, the rate of adverse events after the treatment is substantially the same as the rate of adverse events after administering a placebo for the same period of time.
This clinical study was a parallel, double-blind, placebo-controlled trial in which renally impaired patients on hemodialysis with moderate or severe uremic pruritus were randomized in a 1:1:1 ratio to nalbuphine ER tablets to a target dose of 120 mg BID or 60 mg BID, or matching placebo tablets BID. Medications taken for treatment of pruritus (“antipruritic medications”) were not prohibited, but their use was recorded throughout the study. Use of skin emollients was also not restricted. A placebo comparator was chosen because there are no approved treatments for uremic pruritus in the United States or Europe or an established standard of care that could serve as an active control.
The primary objectives were to evaluate the effects on itching intensity using a Worst Itching Intensity Numerical Rating Scale (NRS, 0 [no itching]-10 [worst possible itching]) (FIG. 7) as well as safety and tolerability. The study was conducted at 46 United States investigative sites and 6 investigative sites in Romania and Poland. The Sponsor oversaw the conduct of the trial and an independent unblinded Data Safety Monitoring Board reviewed safety data approximately once a month during the conduct of the trial.
as §3

[5] = severe subgroup (Baseline NRS ≧ 7), N = 61
[6] = severe subgroup (Baseline NRS ≧ 7), N = 63

`Cl.Oc1ccc2c3c1O[C@H]1[C@@H](O)CC[C@@]4(O)[C@@H](C2)N(CC2CCC2)CC[C@]314` [Nalbuphine, 17-(cyclobutylmethyl)-4,5α-epoxymorphinian-3,6α, 14-triol, hydrochloride] was tested, and the “Skindex-10 Disease Domain (bothersomeness of itching) [0-18], change from Baseline to the Evaluation Period, mean (SD)” value ([1]; N = 128) was −5.3 (4.9), the “Skindex-10 Mood/emotional distress domain (0-24), change from Baseline to the Evaluation Period, mean (SD)” value ([1]; N = 128) was −4.4 (5.0) and the “Skindex-10 Social Functioning Domain [0-18], change from Baseline to the Evaluation Period, mean (SD)” value ([1]; N = 128) was −4.2 (6.7). The “Skindex-10 Total Score [0 (best) to 60 (worst)], change from Baseline to the Evaluation Period, mean (SD)” value ([1]; N = 128) was −13.8 (14.6), the “Skindex-10 Mood/emotional distress domain (0-24), change from Baseline to the Evaluation Period, mean” value ([1]; N = 120) was −5.2 and the “Skindex-10 Social Functioning Domain [0-18], change from Baseline to the Evaluation Period, mean” value ([1]; N = 120) was −5.4. The “Skindex-10 Total Score [0 (best) to 60 (worst)], change from Baseline to the Evaluation Period, mean” value ([1]; N = 120) was −17.0, the “Skindex-10 Disease Domain (bothersomeness of itching) [0-18], change from Baseline to the Evaluation Period, mean” value ([1]; N = 120, p < 0.1) was −6.4 and the “Skindex-10 Disease Domain (bothersomeness of itching) [0-18], change from Baseline to the Evaluation Period, mean (SD)” value [1, 5] was −6.2 (5.1). For the same compound, the “Skindex-10 Mood/emotional distress domain (0-24), change from Baseline to the Evaluation Period, mean (SD)” value [1, 5] was −5.1 (5.0), the “Skindex-10 Social Functioning Domain [0-18], change from Baseline to the Evaluation Period, mean (SD)” value [1, 5] was −5.1 (7.04) and the “Skindex-10 Total Score [0 (best) to 60 (worst)], change from Baseline to the Evaluation Period, mean (SD)” value [1, 5] was −16.4 (15.1). For the same compound, the “Skindex-10 Social Functioning Domain [0-18], change from Baseline to the Evaluation Period, mean” value [1, 6] was −7.1, the “Skindex-10 Total Score [0 (best) to 60 (worst)], change from Baseline to the Evaluation Period, mean” value [1, 6] was −20.5 and the “Skindex-10 Disease Domain (bothersomeness of itching) [0-18], change from Baseline to the Evaluation Period, mean” value ([1]; severe subgroup (Baseline NRS ≧ 7), N = 63, p < 0.05) was −7.1. The “Skindex-10 Mood/emotional distress domain (0-24), change from Baseline to the Evaluation Period, mean” value ([1]; severe subgroup (Baseline NRS ≧ 7), N = 63, p < 0.1) was −6.4, the “Itch MOS [0 (best) to 60 (worst)], change from Baseline to the Evaluation Period, mean (SD)” value ([2]; 60 mg BID, N = 128) was −13.9 (17.6) and the “patients with sleep latency (time to fall asleep) >30 minutes, Itch MOS” value ([2]; 60 mg BID, 68.7% at baseline) was 35.9%. The “Itch MOS [0 (best) to 60 (worst)], change from Baseline to the Evaluation Period, mean” value ([2]; 120 mg BID, N = 120, p < 0.1) was −16.0, the “patients with sleep latency (time to fall asleep) >30 minutes, Itch MOS” value ([2]; 120 mg BID, 67.5% at baseline) was 25.0% and the “Itch MOS (Itch-Related Sleep Disruption) [0 (best) to 60 (worst)], change from Baseline to the Evaluation Period, mean (SD)” value ([2]; severe subgroup (Baseline NRS ≧ 7), 60 mg BID, N = 61) was −15.0 (17.7). The “Itch MOS (Itch-Related Sleep Disruption) [0 (best) to 60 (worst)], change from Baseline to the Evaluation Period, mean” value ([2]; severe subgroup (Baseline NRS ≧ 7), 120 mg BID, N = 63, p < 0.01) was −21.6, the “Sleep disruption due to itching” value ([2]; severe subgroup (Baseline NRS ≧7.0), 120 mg BID, p=0.007) was “improved significantly relative to placebo” and the “HADS Anxiety Subscale (0-21), change from Baseline to the Evaluation Period, mean (SD)” value ([3]; 60 mg BID, N = 128) was −1.72 (3.0). The “HADS Depression Subscale (0-21), change from Baseline to the Evaluation Period, mean (SD)” value ([3]; 60 mg BID, N = 128) was −0.68 (3.1), the “HADS Anxiety Subscale (0-21), change from Baseline to the Evaluation Period, mean” value ([3]; 120 mg BID, N = 120) was −1.64 and the “HADS Depression Subscale (0-21), change from Baseline to the Evaluation Period, mean” value ([3]; 120 mg BID, N = 120) was −1.03. For the same compound, the “Adverse Events Leading to Discontinuation: Dizziness” value ([4]; 60 mg BID) was 0.8%, the “Adverse Events Leading to Discontinuation: Hallucination” value ([4]; 60 mg BID) was 1.6% and the “Adverse Events Leading to Discontinuation: Nausea” value ([4]; 60 mg BID) was 9.5%. For the same compound, the “Adverse Events Leading to Discontinuation: Somnolence” value ([4]; 60 mg BID) was 4.0%, the “Adverse Events Leading to Discontinuation: Vomiting” value ([4]; 60 mg BID) was 9.5% and the “Adverse Events Leading to Discontinuation, number of patients” value ([4]; 60 mg BID, N = 128) was 33. The “Adverse Events Leading to Discontinuation, percent of patients” value ([4]; 60 mg BID, N = 128) was 26.2%, the “Serious Adverse Events (incidence)” value ([4]; 60 mg BID, N = 128, hydrochloride) was 12.7% and the “Serious Adverse Events (incidence)” value ([4]; 60 mg BID, N = 128, listed as NAL 60, hydrochloride) was 12.7%. For the same compound, the “Adverse Events Leading to Discontinuation: Dizziness” value ([4]; 120 mg BID) was 2.5%, the “Adverse Events Leading to Discontinuation: Hallucination” value ([4]; 120 mg BID) was 2.5% and the “Adverse Events Leading to Discontinuation: Nausea” value ([4]; 120 mg BID) was 10.0%. For the same compound, the “Adverse Events Leading to Discontinuation: Somnolence” value ([4]; 120 mg BID) was 1.7%, the “Adverse Events Leading to Discontinuation: Vomiting” value ([4]; 120 mg BID) was 5.0% and the “Adverse Events Leading to Discontinuation, number of patients” value ([4]; 120 mg BID, N = 120) was 27. For the same compound, the “Adverse Events Leading to Discontinuation, percent of patients” value ([4]; 120 mg BID, N = 120) was 22.5%, the “Serious Adverse Events (incidence)” value ([4]; 120 mg BID, N = 120, hydrochloride) was 6.7% and the “Serious Adverse Events (incidence)” value ([4]; 120 mg BID, N = 120, listed as NAL 120, hydrochloride) was 6.7%. The “mood effects (adverse event reporting, Skindex-10 mood domain, HADS)” value ([4]; ER tablets, both doses) was “neutral in mood effects” and the safety profile ([4]; ER tablets, both doses) was “no adverse safety trends other than those expected from a centrally-acting opioid”.
